# Test results: the supplement of paper PMC10307832
# Assays:
# Assay in all cases: relative viability (nuclei count vs DMSO), 5 days (fraction); higher = more cells survive
# [1] = compound: CC1=NN=C(O1)C2=NN=C(C=C2)N3CCC(CC3)OC4=C(C=CC(=C4)F)Cl + NC(=O)Nc1cc(-c2cccc(F)c2)sc1C(=O)N[C@H]1CCCNC1 [AZD7762] (partner 0.2 µM)
# In short: (§1)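 Each reported value is a median over duplicate plates. It expresses relative viability: treated-well nuclei count divided by vehicle-well nuclei count. Lung cancer cell lines in 1536-well plates were dosed by pin tool a day after seeding, alone with one drug or with a fixed anchor-drug dose plus five library-drug doses (not always all listed) in √10 steps, and nuclei were counted after 5 days.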
# [2] = compound: CC1=NN=C(O1)C2=NN=C(C=C2)N3CCC(CC3)OC4=C(C=CC(=C4)F)Cl + COc1cccc2cc(-c3nc([C@H]4CC[C@H](C(=O)O)CC4)n4ncnc(N)c34)[nH]c12 [OSI-027] (partner 0.5 µM)
# In short: as §1
# Tosedostat + Lapatinib = compound: CC(C)C[C@@H](C(=O)N[C@H](C(=O)OC1CCCC1)c1ccccc1)[C@H](O)C(=O)NO [Tosedostat] + CS(=O)(=O)CCNCc1ccc(-c2ccc3ncnc(Nc4ccc(OCc5cccc(F)c5)c(Cl)c4)c3c2)o1 [Lapatinib] (partner 2 µM)
# In short: as §1
# Tosedostat + Foretinib = compound: CC(C)C[C@@H](C(=O)N[C@H](C(=O)OC1CCCC1)c1ccccc1)[C@H](O)C(=O)NO [Tosedostat] + COc1cc2c(Oc3ccc(NC(=O)C4(C(=O)Nc5ccc(F)cc5)CC4)cc3F)ccnc2cc1OCCCN1CCOCC1 [Foretinib] (partner 0.25 µM)
# In short: as §1
cell line,measurement,setting,value
NCI-H1648,relative viability,[1]; first compound 0.253 µM,0.434
same,relative viability,[1]; first compound 0.8 µM,0.532
same,relative viability,[1]; first compound 2.53 µM,0.6
same,relative viability,[1]; first compound 8 µM,0.503
same,relative viability,[2]; first compound 0.253 µM,0.256
same,relative viability,[2]; first compound 0.8 µM,0.253
same,relative viability,[2]; first compound 2.53 µM,0.279
same,relative viability,[2]; first compound 8 µM,0.271
NCI-H1650,relative viability,Tosedostat + Lapatinib; first compound 0.02 µM,0.983
same,relative viability,Tosedostat + Lapatinib; first compound 0.06325 µM,0.828
same,relative viability,Tosedostat + Lapatinib; first compound 0.2 µM,0.863
same,relative viability,Tosedostat + Lapatinib; first compound 0.6325 µM,0.997
same,relative viability,Tosedostat + Lapatinib; first compound 2 µM,0.918
same,relative viability,[2]; first compound 0.8 µM,0.472
same,relative viability,[2]; first compound 2.53 µM,0.626
same,relative viability,[2]; first compound 8 µM,0.615
same,relative viability,Tosedostat + Foretinib; first compound 0.02 µM,1.05
same,relative viability,Tosedostat + Foretinib; first compound 0.06325 µM,0.955
same,relative viability,Tosedostat + Foretinib; first compound 0.2 µM,1.03
same,relative viability,Tosedostat + Foretinib; first compound 0.6325 µM,0.985
same,relative viability,Tosedostat + Foretinib; first compound 2 µM,0.967
NCI-H1703,relative viability,Tosedostat + Lapatinib; first compound 0.02 µM,1.35
same,relative viability,Tosedostat + Lapatinib; first compound 0.06325 µM,1
same,relative viability,Tosedostat + Lapatinib; first compound 0.2 µM,1.02
same,relative viability,Tosedostat + Lapatinib; first compound 0.6325 µM,0.743
same,relative viability,Tosedostat + Lapatinib; first compound 2 µM,0.943
same,relative viability,[1]; first compound 0.253 µM,0.097
same,relative viability,[1]; first compound 0.8 µM,0.129
same,relative viability,[1]; first compound 2.53 µM,0.153
same,relative viability,[1]; first compound 8 µM,0.0983
same,relative viability,Tosedostat + Foretinib; first compound 0.02 µM,0.329
same,relative viability,Tosedostat + Foretinib; first compound 0.06325 µM,0.288
same,relative viability,Tosedostat + Foretinib; first compound 0.2 µM,0.327
same,relative viability,Tosedostat + Foretinib; first compound 2 µM,0.322
NCI-H1792,relative viability,Tosedostat + Lapatinib; first compound 0.02 µM,0.988
same,relative viability,Tosedostat + Lapatinib; first compound 0.06325 µM,1.04
same,relative viability,Tosedostat + Lapatinib; first compound 0.2 µM,0.878
same,relative viability,Tosedostat + Lapatinib; first compound 0.6325 µM,0.863
same,relative viability,Tosedostat + Lapatinib; first compound 2 µM,0.823
same,relative viability,[1]; first compound 0.253 µM,0.535
same,relative viability,[1]; first compound 0.8 µM,0.574
same,relative viability,[1]; first compound 2.53 µM,0.689
same,relative viability,[1]; first compound 8 µM,0.472
same,relative viability,[2]; first compound 0.253 µM,0.547
same,relative viability,[2]; first compound 0.8 µM,0.587
same,relative viability,[2]; first compound 2.53 µM,0.686
same,relative viability,[2]; first compound 8 µM,0.731
NCI-H2009,relative viability,Tosedostat + Lapatinib; first compound 0.02 µM,1.25
same,relative viability,Tosedostat + Lapatinib; first compound 0.06325 µM,0.956
same,relative viability,Tosedostat + Lapatinib; first compound 0.2 µM,1.03
same,relative viability,Tosedostat + Lapatinib; first compound 0.6325 µM,0.78
same,relative viability,Tosedostat + Lapatinib; first compound 2 µM,0.663
same,relative viability,[2]; first compound 0.253 µM,0.673
same,relative viability,[2]; first compound 0.8 µM,0.618
same,relative viability,[2]; first compound 2.53 µM,0.605
same,relative viability,[2]; first compound 8 µM,0.564
same,relative viability,Tosedostat + Foretinib; first compound 0.02 µM,1.34
same,relative viability,Tosedostat + Foretinib; first compound 0.06325 µM,1.15
same,relative viability,Tosedostat + Foretinib; first compound 0.2 µM,1.19
same,relative viability,Tosedostat + Foretinib; first compound 0.6325 µM,1.11
same,relative viability,Tosedostat + Foretinib; first compound 2 µM,1.09
NCI-H2023,relative viability,Tosedostat + Lapatinib; first compound 0.02 µM,0.94
same,relative viability,Tosedostat + Lapatinib; first compound 0.06325 µM,0.953
same,relative viability,Tosedostat + Lapatinib; first compound 0.2 µM,0.795
same,relative viability,Tosedostat + Lapatinib; first compound 0.6325 µM,0.457
same,relative viability,Tosedostat + Lapatinib; first compound 2 µM,0.753
same,relative viability,[2]; first compound 0.253 µM,0.33
same,relative viability,[2]; first compound 0.8 µM,0.35
same,relative viability,[2]; first compound 2.53 µM,0.35
same,relative viability,[2]; first compound 8 µM,0.314
same,relative viability,Tosedostat + Foretinib; first compound 0.02 µM,0.782
same,relative viability,Tosedostat + Foretinib; first compound 0.06325 µM,0.779
same,relative viability,Tosedostat + Foretinib; first compound 0.2 µM,0.764
same,relative viability,Tosedostat + Foretinib; first compound 2 µM,0.808
NCI-H2228,relative viability,Tosedostat + Lapatinib; first compound 0.02 µM,1.11
same,relative viability,Tosedostat + Lapatinib; first compound 0.06325 µM,0.991
same,relative viability,Tosedostat + Lapatinib; first compound 0.2 µM,0.822
same,relative viability,Tosedostat + Lapatinib; first compound 0.6325 µM,0.784
same,relative viability,Tosedostat + Lapatinib; first compound 2 µM,0.533
same,relative viability,[2]; first compound 0.253 µM,0.41
same,relative viability,[2]; first compound 0.8 µM,0.448
same,relative viability,[2]; first compound 2.53 µM,0.302
same,relative viability,[2]; first compound 8 µM,0.468
same,relative viability,Tosedostat + Foretinib; first compound 0.02 µM,0.998
same,relative viability,Tosedostat + Foretinib; first compound 0.06325 µM,0.774
same,relative viability,Tosedostat + Foretinib; first compound 0.2 µM,1.11
same,relative viability,Tosedostat + Foretinib; first compound 0.6325 µM,0.768
same,relative viability,Tosedostat + Foretinib; first compound 2 µM,0.751
NCI-H2342,relative viability,[1]; first compound 0.253 µM,0.417
same,relative viability,[1]; first compound 0.8 µM,0.415
same,relative viability,[1]; first compound 2.53 µM,0.479
same,relative viability,[1]; first compound 8 µM,0.299
same,relative viability,[2]; first compound 0.253 µM,0.57
same,relative viability,[2]; first compound 0.8 µM,0.531
same,relative viability,[2]; first compound 2.53 µM,0.515
same,relative viability,[2]; first compound 8 µM,0.522
same,relative viability,Tosedostat + Foretinib; first compound 0.02 µM,0.944
same,relative viability,Tosedostat + Foretinib; first compound 0.06325 µM,1.01
same,relative viability,Tosedostat + Foretinib; first compound 0.2 µM,1.27
same,relative viability,Tosedostat + Foretinib; first compound 0.6325 µM,0.924
same,relative viability,Tosedostat + Foretinib; first compound 2 µM,0.89
SK-LU-1,relative viability,Tosedostat + Lapatinib; first compound 0.02 µM,0.915
same,relative viability,Tosedostat + Lapatinib; first compound 0.06325 µM,0.774
same,relative viability,Tosedostat + Lapatinib; first compound 0.2 µM,0.7
same,relative viability,Tosedostat + Lapatinib; first compound 0.6325 µM,0.709
same,relative viability,Tosedostat + Lapatinib; first compound 2 µM,0.739
same,relative viability,[2]; first compound 0.253 µM,0.3
same,relative viability,[2]; first compound 2.53 µM,0.247
same,relative viability,[2]; first compound 8 µM,0.199
same,relative viability,Tosedostat + Foretinib; first compound 0.02 µM,0.975
same,relative viability,Tosedostat + Foretinib; first compound 0.06325 µM,0.724
same,relative viability,Tosedostat + Foretinib; first compound 0.2 µM,0.662
same,relative viability,Tosedostat + Foretinib; first compound 0.6325 µM,0.792
same,relative viability,Tosedostat + Foretinib; first compound 2 µM,0.652
SK-MES-1,relative viability,Tosedostat + Lapatinib; first compound 0.02 µM,0.41
same,relative viability,Tosedostat + Lapatinib; first compound 0.06325 µM,0.482
same,relative viability,Tosedostat + Lapatinib; first compound 0.2 µM,0.473
same,relative viability,Tosedostat + Lapatinib; first compound 0.6325 µM,0.472
same,relative viability,Tosedostat + Lapatinib; first compound 2 µM,0.472
same,relative viability,[2]; first compound 0.253 µM,0.558
same,relative viability,[2]; first compound 0.8 µM,0.583
same,relative viability,[2]; first compound 2.53 µM,0.601
same,relative viability,[2]; first compound 8 µM,0.487
same,relative viability,Tosedostat + Foretinib; first compound 0.02 µM,0.691
same,relative viability,Tosedostat + Foretinib; first compound 0.06325 µM,0.889
same,relative viability,Tosedostat + Foretinib; first compound 0.2 µM,0.914
same,relative viability,Tosedostat + Foretinib; first compound 0.6325 µM,0.873
same,relative viability,Tosedostat + Foretinib; first compound 2 µM,0.86
SW 900,relative viability,[1]; first compound 0.8 µM,0.563
same,relative viability,[1]; first compound 2.53 µM,0.596
same,relative viability,[1]; first compound 8 µM,0.66
same,relative viability,[2]; first compound 2.53 µM,0.637
same,relative viability,[2]; first compound 8 µM,0.41
same,relative viability,Tosedostat + Foretinib; first compound 0.02 µM,0.854
same,relative viability,Tosedostat + Foretinib; first compound 0.06325 µM,0.904
same,relative viability,Tosedostat + Foretinib; first compound 0.2 µM,0.709
same,relative viability,Tosedostat + Foretinib; first compound 0.6325 µM,0.765
same,relative viability,Tosedostat + Foretinib; first compound 2 µM,0.61
SW 1573,relative viability,Tosedostat + Lapatinib; first compound 0.02 µM,1.18
same,relative viability,Tosedostat + Lapatinib; first compound 0.06325 µM,1.12
same,relative viability,Tosedostat + Lapatinib; first compound 0.2 µM,1.19
same,relative viability,Tosedostat + Lapatinib; first compound 0.6325 µM,1.05
same,relative viability,Tosedostat + Lapatinib; first compound 2 µM,1.05
same,relative viability,[2]; first compound 0.253 µM,0.643
same,relative viability,[2]; first compound 0.8 µM,0.52
same,relative viability,[2]; first compound 2.53 µM,0.562
same,relative viability,[2]; first compound 8 µM,0.4
same,relative viability,Tosedostat + Foretinib; first compound 0.02 µM,0.877
same,relative viability,Tosedostat + Foretinib; first compound 0.06325 µM,0.906
same,relative viability,Tosedostat + Foretinib; first compound 0.2 µM,0.924
same,relative viability,Tosedostat + Foretinib; first compound 0.6325 µM,0.825
same,relative viability,Tosedostat + Foretinib; first compound 2 µM,0.974
